Measured values as given in ChEMBL document CHEMBL3272305, “Synthesis and comparative skeletal muscle relaxant activity of some 2,4-imidazolidinediones and their corresponding 5-hydroxy-2,4-imidazolidinediones” (J Med Chem, 1978).
Calls of active or inactive are those of the source. The rule behind the calls is not given here.

Tests used:
Mus musculus [1] = species: Mus musculus; test: Induction of muscle incoordination in mouse after 30 mins by rotarod test; type: organism-based, Muscle tissue; conditions: in vivo, 0.5 h
Mus musculus [2] = species: Mus musculus; test: Muscle relaxant efficacy index, ratio of ED50 for muscle incoordination in mouse to ED50 for induction of straub tail relaxation in albino mouse
Mus musculus [3] = species: Mus musculus; test: Induction of straub tail relaxation in albino mouse assessed as gain of righting reflex in 1 min; type: functional
Mus musculus [4] = test: Induction of skeletal muscle relaxation in ip dosed albino mouse after 60 mins; type: functional; conditions: 1 h
Mus musculus [5] = test: Induction of skeletal muscle relaxation in po dosed albino mouse after 60 mins; type: functional; conditions: 1 h
[6] = Toxicity in albino mouse after 72 hrs; type: organism-based; conditions: in vivo
[7] = (§1) Inhibition of twitch in Charles River rat diaphragm at 60 mg/L after 5 mins; type: functional
Rattus norvegicus [8] = test: Inhibition of gastrocnemius twitch in Sprague-Dawley rat at cumulative dose of 36.6 mg/kg, iv relative to control; type: functional
Rattus norvegicus [9] = test: Inhibition of gastrocnemius twitch in iv dosed Sprague-Dawley rat; type: functional
Rattus norvegicus [10] = species: Rattus norvegicus; test: as §1; type: functional
[11] = Therapeutic index, ratio of LD50 for albino mouse to ED50 for induction of straub tail relaxation in albino mouse; type: organism-based; conditions: in vivo, read-out: Ratio LD50/ED50

SMILES	ED50 (Mus musculus [1])	Ratio ED50 (Mus musculus [2])	ED50 (Mus musculus [3])	ED50 (Mus musculus [4])	ED50 (Mus musculus [5])	LD50 at 72 h [6]	inhibition at 60 µg/mL [7]	inhibition in vivo at 36.6 mg/kg (Rattus norvegicus [8])	ED50 (Rattus norvegicus [9])	inhibition (Rattus norvegicus [10])	selectivity ratio [11]
O=C1CN(/N=C/c2ccc(-c3ccc(Cl)cc3)o2)C(=O)N1	40 mg/kg	<0.04	> 1000 mg/kg	1000 mg/kg	> 1000 mg/kg	> 6000 mg/kg	≥ 40%	-74%	22 µmol/kg	–	–
O=C1CN(/N=C/c2ccc(-c3ccc(Cl)c(Cl)c3)o2)C(=O)N1 [CLODANOLENE]	181 mg/kg	<0.18	> 1000 mg/kg	647 mg/kg	> 1000 mg/kg	> 7000 mg/kg	≥ 40%	-77%	10 µmol/kg	–	–
CC(=O)Nc1ccc(-c2ccc(/C=N/N3C(=O)NC(=O)C3O)o2)cc1 (stereo not given)	> 1000 mg/kg	–	> 1000 mg/kg	> 1000 mg/kg	> 1000 mg/kg	673 mg/kg	–	-10%	> 107 µmol/kg	inactive	–
N#Cc1ccc(-c2ccc(/C=N/N3C(=O)NC(=O)C3O)o2)cc1 (stereo not given)	96 mg/kg	0.13	743 mg/kg	156 mg/kg	> 1000 mg/kg	104 mg/kg	≥ 40%	-69%	25 µmol/kg	–	0.14
N#Cc1ccc(-c2ccc(/C=N/N3CC(=O)NC3=O)o2)cc1	91 mg/kg	<0.09	> 1000 mg/kg	> 1000 mg/kg	> 1000 mg/kg	2340 mg/kg	≥ 40%	-76%	20 µmol/kg	–	–
O=C1NC(=O)N(/N=C/c2ccc(-c3ccc(Cl)cc3)o2)C1O (stereo not given)	63 mg/kg	<0.06	> 1000 mg/kg	> 1000 mg/kg	> 1000 mg/kg	522 mg/kg	≥ 40%	-77%	16 µmol/kg	–	–
Nc1ccc(-c2ccc(/C=N/N3CC(=O)NC3=O)o2)cc1	> 1000 mg/kg	–	> 1000 mg/kg	> 1000 mg/kg	> 1000 mg/kg	1040 mg/kg	–	-19%	> 129 µmol/kg	inactive	–
O=C1NC(=O)N(/N=C/c2ccc(-c3ccc([N+](=O)[O-])cc3)o2)C1O (stereo not given)	171 mg/kg	<0.17	> 1000 mg/kg	> 1000 mg/kg	> 1000 mg/kg	> 5000 mg/kg	≥ 40%	-76%	15 µmol/kg	–	–
O=C1CN(/N=C/c2ccc(-c3ccc(F)cc3)o2)C(=O)N1	369 mg/kg	0.4	950 mg/kg	105 mg/kg	112 mg/kg	1400 mg/kg	≥ 40%	-71%	38 µmol/kg	–	1.5
O=C1NC(=O)N(/N=C/c2ccc(-c3ccc(Cl)c(Cl)c3)o2)C1O (stereo not given)	10 mg/kg	0.3	34 mg/kg	72 mg/kg	109 mg/kg	209 mg/kg	≥ 40%	-82%	19 µmol/kg	–	6.1
Nc1ccc(-c2ccc(/C=N/N3C(=O)NC(=O)C3O)o2)cc1 (stereo not given)	> 1000 mg/kg	–	> 1000 mg/kg	> 1000 mg/kg	> 1000 mg/kg	192 mg/kg	≥ 40%	-67%	39 µmol/kg	–	–
O=C1CN(/N=C/c2ccc(-c3ccc([N+](=O)[O-])cc3)o2)C(O)=N1 [DANTROLENE]	153 mg/kg	2.7	56 mg/kg	83 mg/kg	490 mg/kg	> 7000 mg/kg	≥ 40%	-80%	7 µmol/kg	–	124
CC(=O)Nc1ccc(-c2ccc(/C=N/N3CC(=O)NC3=O)o2)cc1	> 1000 mg/kg	–	> 1000 mg/kg	> 1000 mg/kg	> 1000 mg/kg	1140 mg/kg	–	4%	> 112 µmol/kg	inactive	–
O=C1NC(=O)N(/N=C/c2ccc(-c3cccc(C(F)(F)F)c3)o2)C1O (stereo not given)	85 mg/kg	<0.09	> 1000 mg/kg	244 mg/kg	166 mg/kg	563 mg/kg	≥ 40%	-57%	96 µmol/kg	–	–
O=C1CN(/N=C/c2ccc(-c3cccc(C(F)(F)F)c3)o2)C(=O)N1	166 mg/kg	0.85	184 mg/kg	143 mg/kg	647 mg/kg	274 mg/kg	≥ 40%	-74%	50 µmol/kg	–	1.4
O=C1NC(=O)N(/N=C/c2ccc(-c3ccc(F)cc3)o2)C1O (stereo not given)	240 mg/kg	<0.24	> 1000 mg/kg	1000 mg/kg	> 1000 mg/kg	784 mg/kg	≥ 40%	-53%	91 µmol/kg	–	–
